This note sets out measurements from ChEMBL document CHEMBL3045905, “Synthesis and evaluation of curcumin analogues as cytotoxic agents” (Med Chem Res, 2010).

A short description of data set [1]: Cytotoxicity against Mus musculus (mouse) EAC assessed as cell viability by trypan blue exclusion assay. Type of data set: functional, Ehrlich.
The test system of data set [2] is Mus musculus. Put plainly: Toxicity in Mus musculus Swiss Albino (mouse) xenografted with Mus musculus (mouse) EAC assessed as increase in body weight at 50 to 250 mg/kg/day, ip measured on day 14. Type of data set: organism-based. Details: route intraperitoneal. To be noted: in vivo.
Data set [3] in a line: Antitumor activity against Mus musculus (mouse) EAC xenografted in Mus musculus (mouse) assessed as normalization of hemoglobin level at 50 to 250 mg/kg/day, ip measured on day 14 (reference value: 8.7 g/dl). Type of data set: functional, Ehrlich. To be noted: route intraperitoneal.
The nature of data set [4]: Antitumor activity against Mus musculus (mouse) EAC xenografted in Mus musculus (mouse) assessed as decrease in tumor number at 50 to 250 mg/kg/day, ip measured on day 14 by Giemsa staining (reference value: 220 million/ml). Type of data set: functional, Ehrlich. To be noted: route intraperitoneal.
Data set [5] can be described thus: Antitumor activity against Mus musculus (mouse) EAC xenografted in Mus musculus (mouse) assessed as normalization of hematocrit at 50 to 250 mg/kg/day, ip measured on day 14 (reference value: 35.5%). It counts as functional, Ehrlich. The following applies: route intraperitoneal.
A short description of data set [6]: Antitumor activity against Mus musculus (mouse) EAC xenografted in Mus musculus (mouse) assessed as increase in mean survival time at 50 to 250 mg/kg/day, ip after 9 days (reference value: 9.1 days). Type of data set: functional, Ehrlich. The following applies: route intraperitoneal.
The subject of data set [7] is Ehrlich. Put plainly: Antitumor activity against Mus musculus (mouse) EAC xenografted in Mus musculus (mouse) assessed as normalization of WBC level at 50 to 250 mg/kg/day, ip measured on day 14 relative to untreated control. Type of data set: functional, organism-based.
Data set [8] has as its system Mus musculus. Description: Toxicity in Mus musculus Swiss Albino (mouse) xenografted with Mus musculus (mouse) EAC assessed as increase in body weight at 20 mg/kg/day, ip measured on day 14. Also noted: route intraperitoneal. The following applies: in vivo. It counts as organism-based.
In data set [9] the test system is Ehrlich. Description: Antitumor activity against Mus musculus (mouse) EAC xenografted in Mus musculus (mouse) assessed as normalization of WBC level at 20 mg/kg/day, ip measured on day 14 relative to untreated control. Type of data set: functional, organism-based.
Data set [10] can be described thus: Antitumor activity against Mus musculus (mouse) EAC xenografted in Mus musculus (mouse) assessed as normalization of hemoglobin level at 20 mg/kg/day, ip measured on day 14 (reference value: 8.7 g/dl). Type of data set: functional, Ehrlich. To be noted: route intraperitoneal.
Data set [11] can be described thus: Antitumor activity against Mus musculus (mouse) EAC xenografted in Mus musculus (mouse) assessed as decrease in tumor number at 20 mg/kg/day, ip measured on day 14 by Giemsa staining (reference value: 220 million/ml). Type of data set: functional, Ehrlich. The following applies: route intraperitoneal.
A short description of data set [12]: Antitumor activity against Mus musculus (mouse) EAC xenografted in Mus musculus (mouse) assessed as normalization of hematocrit at 20 mg/kg/day, ip measured on day 14 (reference value: 35.5%). Type of data set: functional, Ehrlich. To be noted: route intraperitoneal.
A short description of data set [13]: Antitumor activity against Mus musculus (mouse) EAC xenografted in Mus musculus (mouse) assessed as increase in mean survival time at 20 mg/kg/day, ip after 9 days (reference value: 9.1 days). Type of data set: functional, Ehrlich. The following applies: route intraperitoneal.

Active and inactive are the calls of the source. The calls are words filed in the database; no cut-off is given here.

Turning to `COc1cc(/C=C/c2cc(/C=C/c3ccc(O)c(OC)c3)n(NN)n2)ccc1O`, in [1], the ED25 came to 22.2 mM. Still for that read-out and setting: the same measure for `COc1ccc(NN=C(C(=O)/C=C/c2ccc(O)c(OC)c2)C(=O)/C=C/c2ccc(O)c(OC)c2)cc1`: 3.4 mM. On to `COc1cc(/C=C/C(=O)C(=NNc2ccc(C)cc2)C(=O)/C=C/c2ccc(O)c(OC)c2)ccc1O`, for which the ED10 in [1] turned out to be 2.4 mM. On to `COc1cc(/C=C/C(=O)C(=NNc2ccc(Cl)cc2)C(=O)/C=C/c2ccc(O)c(OC)c2)ccc1O`, for which the ED25 in [1] is reported as 3.2 mM. In the case of `COc1cc(/C=C/C(=O)C(=NNc2ccc([N+](=O)[O-])cc2)C(=O)/C=C/c2ccc(O)c(OC)c2)ccc1O`, in data set [1], the ED10 amounted to 2.5 mM and the ED25 is on record as 2.8 mM. As to `COc1cc(/C=C/C(=O)/C(=N\Nc2ccc([N+](=O)[O-])cc2)C(=O)C(Br)C(Br)c2ccc(O)c(OC)c2)ccc1O` (stereo not drawn), the ED25 in data set [1] is 3.2 mM. The same measure, in the same setting: to `COc1cc(C2CC(C(=NNc3ccc([N+](=O)[O-])cc3)C3=NC(=S)NC(c4ccc(O)c(OC)c4)C3)=NC(=S)N2)ccc1O` (stereo not drawn) belongs 4.8 mM.

Regarding `COc1cc(/C=C/C(=O)/C(=N\Nc2ccc([N+](=O)[O-])cc2)C2=NC(=S)NC(c3ccc(O)c(OC)c3)C2)ccc1O` (stereo not drawn), the ED10 in data set [1] was 2.9 mM. On to `COc1cc(C2C=C(C(=NNc3ccc([N+](=O)[O-])cc3)C3=CC(c4ccc(O)c(OC)c4)ON3)NO2)ccc1O` (stereo not drawn), for which, in data set [1], the ED25 was found to be 5.3 mM. On the same count and under the same terms, the same measure for `COc1cc(C2CC(C(=NNc3ccc([N+](=O)[O-])cc3)C3=NNC(c4ccc(O)c(OC)c4)C3)=NN2)ccc1O` (stereo not drawn): 38.9 mM.

With `COc1cc(/C=C/c2cc(/C=C/c3ccc(O)c(OC)c3)n(N=O)n2)ccc1O`, in [1], the ED25 worked out at 6.7 mM.

As to `COc1cc(/C=C/c2cc(/C=C/c3cc(/N=N/c4ccc(Cl)cc4)c(O)c(OC)c3)n(CO)n2)cc(/N=N/c2ccc(Cl)cc2)c1O`, in [1], the ED25 was 3.6 mM. `COc1cc(/C=C/c2cc(/C=C/c3ccc(O)c(OC)c3)[nH]n2)ccc1O` [CURCUMIN PYRAZOLE]: the Activity entry in the data set on Mus musculus [2] was “Toxic”; in data set [3], 9.4 g/dL; in data set [4] it was 169.6 ×10⁶ /ml; in [5], 41%. For the same compound, in data set [1], the ED25 is on record as 66.7 mM. For the same compound, the MST in data set [6] is 14.6 days. For the same compound, in the data set on Ehrlich [7], the outcome was Active.

In the case of `COc1cc(/C=C/C(=O)CC(=O)/C=C/c2ccc(O)c(OC)c2)ccc1O` [CURCUMIN], in data set [1], the ED10 amounted to 3.4 mM and the ED25 is reported as 4.8 mM. `O=c1[nH]cc(F)c(=O)[nH]1` [FLUOROURACIL]: the Activity entry with Mus musculus [8] was “Toxic”; in [10] it was 10 g/dL; in data set [11], 123 ×10⁶ /ml; in [12] it was 42.3%. The outcome with Ehrlich [9] was Active. The MST in data set [13] came out at 16.7 days.
